The record followed here is patent US10131644B2, “Aryl sultam derivatives as RORc modulators” (Genentech, Inc., priority 2014, dated 2018).

The IC50 is the concentration that gives 50% inhibition. High values mean weaker potency in that assay, low ones greater potency in that assay.

Counter-ions that a name gives are not always drawn.

This assay has as its target T1, RORc (Homo sapiens, UniProt P51449).
T1 sequence (P51449 269-508 limits assumed): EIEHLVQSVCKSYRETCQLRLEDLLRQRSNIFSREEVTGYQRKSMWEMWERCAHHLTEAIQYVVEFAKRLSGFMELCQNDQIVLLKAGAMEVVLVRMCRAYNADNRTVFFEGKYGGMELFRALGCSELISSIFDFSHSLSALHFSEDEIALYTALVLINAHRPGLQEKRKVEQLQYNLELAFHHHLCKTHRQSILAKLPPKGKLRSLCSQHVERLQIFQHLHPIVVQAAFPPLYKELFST
Put plainly: In vitro RORc ligand binding assay (25-[3H]hydroxycholesterol displacement). The note with it: IC50, IC50 values for RORc; unit inferred.

Protocol: This assay was used to determine a compound's potency in inhibiting activity of RORc by determining, Kiapp, IC50, or percent inhibition values.
On day of the assay, 100 uL of 0.05% CHAPS (in deionized H2O) was added to all wells of the GFB Unifilter plate and allowed soak for 1 h. A wash buffer of 50 mM HEPES (pH 7.4), 150 mM NaCl, and 5 mM MgCl2 was prepared to wash the filter plate. To prepare an assay buffer, BSA was added to the wash buffer to reach 0.01% and DTT was added to reach 1 mM.
The 20× compound stocks were diluted in DMSO with Assay Buffer 4-fold to reach 5× the final test concentration in 25% DMSO (10 uL compound+30 uL Assay Buffer). Solutions were mixed by aspiration several times with a pipette set on 50 uL volume. For the assay, 10 uL of 5× compound stock solutions in 25% DMSO were added to the assay plate in duplicate.
For two point screening, 10 mM stock compound solutions were diluted in DMSO to obtain 200 uM (20× the high test concentration) and then diluted 10-fold further to reach 20 uM (20× the low test concentration). The 20× stocks were diluted 4-fold with Assay Buffer (10 uL compound+30 uL Assay Buffer) to reach 5× the test concentrations (50 uM and 5 uM) and 10 uL were added to two assay plates for the duplicate wells. With each concentration tested on 2 plates, each set of 80 compounds used 4 assay plates (1 uM and 10 uM, with n=2).
For 25-hydroxycholesterol in 25% DMSO/75% Assay Buffer; 10 uL per well was used for NSB samples. Wells for Total Binding and No Receptor sample determination contained 10 uL of 25% DMSO/75% Assay Buffer per well.
Add 20 uL to all wells to reach 6 nM final in the assay.
Stock receptor solution was diluted in assay buffer to obtain 1.5 ug/mL in Assay Buffer. 20 uL was added to all wells. For No R samples, 20 uL Assay Buffer was substituted for receptor solution.
Assay plates were 96-well polypropylene V-bottom plates. 10 uL of 5× compound in 25% DMSO/75% Assay Buffer was added to Test wells. 10 uL of 25% DMSO/75% Assay Buffer was added to Total Binding or No Receptor wells. 10 uL of 5 uM 25-hydroxycholesterol in 25% DMSO/75% Assay Buffer was added to NSB wells. […] 20 uL of 1.5 ug/mL RORc receptor was added to wells (or 40 uL Assay Buffer to No R wells). Following addition to the wells, the plates were incubated 3 h at 25° C.
Using a Packard Filtermate Harvester, the filter plate were washed 4 times following transfer of the incubated samples. Plates were dry-filtered completely (2 h at 50° C. or overnight at room temperature). 50 uL Microscint 0 was added to all wells and read on Topcount protocol Inverted.
For NSB wells, 1 uM 25-hydroxycholesterol was also present.

In the case of `C[C@H]1CC[C@H](c2ccccc2)S(=O)(=O)N1Cc1cc(F)c(C2(OCC(=O)O)COC2)cc1F` [Compound 135, 2-[3-[2,5-difluoro-4-[[(3S,6R)-3-methyl-1,1-dioxo-6-phenyl-thiazinan-2-yl]methyl]phenyl]oxetan-3-yl]oxyacetic acid], the IC50 worked out at 27.2 nM. The figure for `CC(=O)N1CC(OCC(=O)O)(c2cc(F)c(CN3[C@@H](C)CC[C@H](c4ccccc4)S3(=O)=O)cc2F)C1` [Compound 136, 2-[1-acetyl-3-[2,5-difluoro-4-[[(3S,6R)-3-methyl-1,1-dioxo-6-phenyl-thiazinan-2-yl]methyl]phenyl]azetidin-3-yl]oxyacetic acid] is 17.2 nM; for `CC(=O)N1CCC(OCC(=O)O)(c2cc(F)c(CN3[C@@H](C)CC[C@H](c4ccccc4)S3(=O)=O)cc2F)CC1` [Compound 137, 2-[[1-acetyl-4-[2,5-difluoro-4-[[(3S,6R)-3-methyl-1,1-dioxo-6-phenyl-thiazinan-2-yl]methyl]phenyl]-4-piperidyl]oxy]acetic acid] it is 17.9 nM; for `C[C@H]1CC[C@H](c2ccccc2)S(=O)(=O)N1Cc1cc(F)c(C2(OCC(N)=O)COC2)cc1F` [Compound 138, 2-[3-[2,5-difluoro-4-[[(3S,6R)-3-methyl-1,1-dioxo-6-phenyl-thiazinan-2-yl]methyl]phenyl]oxetan-3-yl]oxyacetamide] it is 2.6 nM. The value for `C[C@H]1CC[C@H](c2ccccc2)S(=O)(=O)N1Cc1cc(F)c(C2(CCC(N)=O)CC2)cc1F` [Compound 139, 3-[1-[2,5-difluoro-4-[[(3S,6R)-3-methyl-1,1-dioxo-6-phenyl-thiazinan-2-yl]methyl]phenyl]cyclopropyl]propanamide] was 23.7 nM; that for `CCOC(=O)CCC1(c2cc(F)c(CN3[C@@H](C)CC[C@H](c4ccccc4)S3(=O)=O)cc2F)CC1` [Compound 140, ethyl 3-[1-[2,5-difluoro-4-[[(3S,6R)-3-methyl-1,1-dioxo-6-phenyl-thiazinan-2-yl]methyl]phenyl]cyclopropyl]propanoate] was 45.7 nM. The figure for `CC(=O)N1CCC(OCC(N)=O)(c2cc(F)c(CN3[C@@H](C)CC[C@H](c4ccccc4)S3(=O)=O)cc2F)CC1` [Compound 141, 2-[[1-acetyl-4-[2,5-difluoro-4-[[(3S,6R)-3-methyl-1,1-dioxo-6-phenyl-thiazinan-2-yl]methyl]phenyl]-4-piperidyl]oxy]acetamide] is 26 nM. `C[C@H]1CC[C@H](c2ccccc2)S(=O)(=O)N1Cc1cc(F)c(C2(OCC(O)CO)COC2)cc1F` (stereo partly drawn) [Compound 142, 3-[3-[2,5-difluoro-4-[[(3S,6R)-3-methyl-1,1-dioxo-6-phenyl-thiazinan-2-yl]methyl]phenyl]oxetan-3-yl]oxypropane-1,2-diol] had an IC50 of 20.6 nM. The value for `CC(=O)N1CC(OCC(O)CO)(c2cc(F)c(CN3[C@@H](C)CC[C@H](c4ccccc4)S3(=O)=O)cc2F)C1` (stereo partly drawn) [Compound 143, 1-[3-[2,5-difluoro-4-[[(3S,6R)-3-methyl-1,1-dioxo-6-phenyl-thiazinan-2-yl]methyl]phenyl]-3-(2,3-dihydroxypropoxy)azetidin-1-yl]ethanone] was 29.8 nM; that for `CC(=O)N1CCC(OCC(O)CO)(c2cc(F)c(CN3[C@@H](C)CC[C@H](c4ccccc4)S3(=O)=O)cc2F)CC1` (stereo partly drawn) [Compound 144, 1-[4-[2,5-difluoro-4-[[(3S,6R)-3-methyl-1,1-dioxo-6-phenyl-thiazinan-2-yl]methyl]phenyl]-4-(2,3-dihydroxypropoxy)-1-piperidyl]ethanone] was 21.6 nM; that for `C[C@H]1CC[C@H](c2ccccc2)S(=O)(=O)N1Cc1cc(F)c(C2(OCC(=O)O)CCOCC2)cc1F` [Compound 145, 2-[4-[2,5-difluoro-4-[[(3S,6R)-3-methyl-1,1-dioxo-6-phenyl-thiazinan-2-yl]methyl]phenyl]tetrahydropyran-4-yl]oxyacetic acid] was 14.3 nM.

For `CNC(=O)CCC1(c2cc(F)c(CN3[C@@H](C)CC[C@H](c4ccccc4)S3(=O)=O)cc2F)CC1` [Compound 146, 3-[1-[2,5-difluoro-4-[[(3S,6R)-3-methyl-1,1-dioxo-6-phenyl-thiazinan-2-yl]methyl]phenyl]cyclopropyl]-N-methyl-propanamide], the IC50 came to 32.7 nM.

Take `C[C@H]1CC[C@H](c2ccccc2)S(=O)(=O)N1Cc1cc(F)c(C2(CCC(=O)N(C)C)CC2)cc1F` [Compound 147, 3-[1-[2,5-difluoro-4-[[(3S,6R)-3-methyl-1,1-dioxo-6-phenyl-thiazinan-2-yl]methyl]phenyl]cyclopropyl]-N,N-dimethyl-propanamide]: the concentration for half-maximal inhibition (IC50) was 32.5 nM. The value for `CC(=O)N1CCC(C#N)(c2cc(F)c(CN3[C@@H](C)CC[C@H](c4ccccc4)S3(=O)=O)cc2F)CC1` [Compound 148, 1-acetyl-4-[2,5-difluoro-4-[[(3S,6R)-3-methyl-1,1-dioxo-6-phenyl-thiazinan-2-yl]methyl]phenyl]piperidine-4-carbonitrile] was 14.5 nM; that for `CC(=O)N1CCC(C(N)=O)(c2cc(F)c(CN3[C@@H](C)CC[C@H](c4ccccc4)S3(=O)=O)cc2F)CC1` [Compound 149, 1-acetyl-4-[2,5-difluoro-4-[[(3S,6R)-3-methyl-1,1-dioxo-6-phenyl-thiazinan-2-yl]methyl]phenyl]piperidine-4-carboxamide] was 11.4 nM. In turn, `C[C@H]1CC[C@H](c2ccccc2)S(=O)(=O)N1Cc1cc(F)c(C2(OCC(N)=O)CCOCC2)cc1F` [Compound 150, 2-[4-[2,5-difluoro-4-[[(3S,6R)-3-methyl-1,1-dioxo-6-phenyl-thiazinan-2-yl]methyl]phenyl]tetrahydropyran-4-yl]oxyacetamide] came in with a half-maximal inhibitory concentration (IC50) of 6.1 nM. Compound `C[C@H]1CC[C@H](c2ccccc2)S(=O)(=O)N1Cc1cc(F)c(C2(OCC(O)CO)CCOCC2)cc1F` (stereo partly drawn) [Compound 151, 3-[4-[2,5-difluoro-4-[[(3S,6R)-3-methyl-1,1-dioxo-6-phenyl-thiazinan-2-yl]methyl]phenyl]tetrahydropyran-4-yl]oxypropane-1,2-diol] came in with an IC50 of 7.8 nM.

`C[C@H]1CC[C@H](c2ccccc2)S(=O)(=O)N1Cc1ccc(C2(NC(=O)OC(C)(C)C)CC2)cc1F` [Compound 152, tert-butyl N-[1-[3-fluoro-4-[[(3S,6R)-3-methyl-1,1-dioxo-6-phenyl-thiazinan-2-yl]methyl]phenyl]cyclopropyl]carbamate] had an IC50 of 227 nM. The value for `C[C@H]1CC[C@H](c2ccccc2)S(=O)(=O)N1Cc1ccc(C2(N)CC2)cc1F` [Compound 153, 1-[3-fluoro-4-[[(3S,6R)-3-methyl-1,1-dioxo-6-phenyl-thiazinan-2-yl]methyl]phenyl]cyclopropanamine; hydrochloride] was 572 nM. The figure for `CNC(=O)COC1(c2cc(F)c(CN3[C@@H](C)CC[C@H](c4ccccc4)S3(=O)=O)cc2F)CCOCC1` [Compound 154, 2-[4-[2,5-difluoro-4-[[(3S,6R)-3-methyl-1,1-dioxo-6-phenyl-thiazinan-2-yl]methyl]phenyl]tetrahydropyran-4-yl]oxy-N-methyl-acetamide] is 5.7 nM. `C[C@H]1CC[C@H](c2ccccc2)S(=O)(=O)N1Cc1cc(F)c(C2(OCC(=O)NCCO)CCOCC2)cc1F` [Compound 156, 2-[4-[2,5-difluoro-4-[[(3S,6R)-3-methyl-1,1-dioxo-6-phenyl-thiazinan-2-yl]methyl]phenyl]tetrahydropyran-4-yl]oxy-N-(2-hydroxyethyl)acetamide]: the concentration for half-maximal inhibition (IC50) turned out to be 15.2 nM.

Consider `C[C@H]1CC[C@H](c2ccccc2)S(=O)(=O)N1Cc1cc(F)c(C2(OCC(=O)N(C)CCO)CCOCC2)cc1F` [Compound 157, 2-[4-[2,5-difluoro-4-[[(3S,6R)-3-methyl-1,1-dioxo-6-phenyl-thiazinan-2-yl]methyl]phenyl]tetrahydropyran-4-yl]oxy-N-(2-hydroxyethyl)-N-methyl-acetamide], for which the half-inhibitory concentration (IC50) was determined as 47.2 nM.

As to `C[C@H]1CC[C@H](c2ccccc2)S(=O)(=O)N1Cc1ccc(C2(CCO)COC2)cc1F` [Compound 158], the IC50 turned out to be 60.3 nM. In turn, `C[C@H]1CC[C@H](c2ccccc2)S(=O)(=O)N1Cc1ccc(C2(CCC#N)COC2)cc1F` [Compound 159] registered an IC50 of 77.1 nM.

The compound `COC1(OC)CC(C#N)(c2ccc(CN3[C@@H](C)CC[C@H](c4ccccc4)S3(=O)=O)c(F)c2)C1` [Compound 160, 1-[3-fluoro-4-[[(3S,6R)-3-methyl-1,1-dioxo-6-phenyl-thiazinan-2-yl]methyl]phenyl]-3,3-dimethoxy-cyclobutanecarbonitrile] showed an IC50 of 14.5 nM.

In turn, `CCOC(=O)CNC1(c2ccc(CN3[C@@H](C)CC[C@H](c4ccccc4)S3(=O)=O)c(F)c2)CCOCC1` [Compound 161, ethyl 2-[[4-[3-fluoro-4-[[(3S,6R)-3-methyl-1,1-dioxo-6-phenyl-thiazinan-2-yl]methyl]phenyl]tetrahydropyran-4-yl]amino]acetate] returned a concentration for half-maximal inhibition (IC50) of 29.5 nM.

Compound `C[C@H]1CC[C@H](c2ccccc2)S(=O)(=O)N1Cc1ccc(C2(C#N)CC(=O)C2)cc1F` [Compound 162, 1-[3-fluoro-4-[[(3S,6R)-3-methyl-1,1-dioxo-6-phenyl-thiazinan-2-yl]methyl]phenyl]-3-oxo-cyclobutanecarbonitrile] yielded a 50% inhibitory concentration (IC50) of 63.9 nM. `C[C@H]1CC[C@H](c2ccccc2)S(=O)(=O)N1Cc1ccc(C2(NCC(N)=O)CCOCC2)cc1F` [Compound 163, 2-[[4-[3-fluoro-4-[[(3S,6R)-3-methyl-1,1-dioxo-6-phenyl-thiazinan-2-yl]methyl]phenyl]tetrahydropyran-4-yl]amino]acetamide] yielded an IC50 of 3.2 nM. In turn, `C[C@H]1CC[C@H](c2ccccc2)S(=O)(=O)N1Cc1ccc(C2(NCC(=O)O)CCOCC2)cc1F` [Compound 164, 2-[[4-[3-fluoro-4-[[(3S,6R)-3-methyl-1,1-dioxo-6-phenyl-thiazinan-2-yl]methyl]phenyl]tetrahydropyran-4-yl]amino]acetic acid] displayed an IC50 of 112 nM.
